The text below walks through data of article PMC10127588 (mBio, 2023).

Entries after “also recorded” stand apart in the source; their conditions may differ. Read-outs that look alike come from different tables or passages of the source.

The subject of test [1] is M. oryzae conidia. As to conditions: cited from earlier work.
The subject of test [2] is M. oryzae. It is filed as cell-based.
For test [3], the system named is M. oryzae. Also on record: species or system Magnaporthe oryzae. The following applies: in vivo.
The subject of test [4] is M. oryzae. It is filed as cell-based. This is another data set of the same source.
In test [5] the target is T1, Mps1 (Pyricularia oryzae, UniProt G4N374). Nature of the test: biochemical. It is filed as binding, Magnaporthe oryzae.
T1 sequence (G4N374 whole entry, looked up): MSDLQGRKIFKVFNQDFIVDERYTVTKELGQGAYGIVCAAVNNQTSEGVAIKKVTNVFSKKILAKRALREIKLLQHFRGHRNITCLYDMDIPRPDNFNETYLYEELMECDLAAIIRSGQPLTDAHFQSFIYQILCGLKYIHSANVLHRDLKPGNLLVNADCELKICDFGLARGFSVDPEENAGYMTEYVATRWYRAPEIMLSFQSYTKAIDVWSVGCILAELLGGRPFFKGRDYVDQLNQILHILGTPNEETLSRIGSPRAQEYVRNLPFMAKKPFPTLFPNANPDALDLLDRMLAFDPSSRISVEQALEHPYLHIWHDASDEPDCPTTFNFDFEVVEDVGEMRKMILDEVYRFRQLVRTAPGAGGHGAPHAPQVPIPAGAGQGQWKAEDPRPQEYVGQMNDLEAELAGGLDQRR
Another test deals with Pmk1 (Pyricularia oryzae, UniProt G4N0Z0). It is filed as binding, Magnaporthe oryzae.
Chain of Pmk1 (G4N0Z0 whole entry, looked up): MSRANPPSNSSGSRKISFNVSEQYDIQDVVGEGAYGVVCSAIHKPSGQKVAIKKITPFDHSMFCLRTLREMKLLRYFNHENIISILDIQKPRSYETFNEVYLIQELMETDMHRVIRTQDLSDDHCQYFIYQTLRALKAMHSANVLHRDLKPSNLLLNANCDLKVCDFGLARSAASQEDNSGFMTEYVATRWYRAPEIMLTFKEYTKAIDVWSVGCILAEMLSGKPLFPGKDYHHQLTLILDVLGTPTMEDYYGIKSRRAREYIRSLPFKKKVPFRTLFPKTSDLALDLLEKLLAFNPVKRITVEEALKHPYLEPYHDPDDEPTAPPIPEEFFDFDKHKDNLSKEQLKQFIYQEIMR
The subject of test [6] is M. oryzae. The arrangement: species or system Magnaporthe oryzae. As to conditions: in vivo. This is another data set of the same source.
Test [7] deals with M. oryzae conidia. It is filed as cell-based, Magnaporthe oryzae.
The test system of test [8] is M. oryzae conidia. It is filed as cell-based, Magnaporthe oryzae. The source holds these as a separate data set.
Test [9] deals with T1, Mps1. It is filed as biochemical, Magnaporthe oryzae.
The target in test [10] is T2, Mpk1 (Fusarium oxysporum, UniProt X0BN28). Briefly: biochemical. It is filed as binding.
In test [11] the target is T2, Mpk1. It is filed as biochemical.
Test [12] concerns M. oryzae. It is filed as cell-based. The source holds these as a separate data set.
In a further test the target is Src. The following applies: read-out: affinity; cited from earlier work.
In the next test the target is Itk. The following applies: read-out: affinity; cited from earlier work.

With `CC(C)OC(=O)C(C(=O)OC(C)C)=C1SCCS1` [Isoprothiolane, diisopropyl 2-(1,3-dithiolan-2-ylidene)malonate], in the test on M. oryzae conidia [1], the “concentration that can inhibit appressorium penetration” value is 20 µg/mL.

As to `CNC(=O)[C@H](Cc1c[nH]c2ccccc12)NC(=O)c1ccc2cncc(-c3cc(OC(F)(F)F)ccc3OC)c2n1` [A378-0], the “sensitivity to lysing enzyme (cell wall integrity)” value in the test with M. oryzae [2] is on record as “readily reduced to spheroplasts”. Moreover, the “virulence on barley leaves” value in the test with M. oryzae [3] is given as “exhibits inhibition of M. oryzae virulence on barley leaves”. Besides, the “autolysis on the culture dish” value in the test on M. oryzae [4] is recorded as “progressive autolysis was observed”. On Mps1 [5], the Kd worked out at 69.2 µM. Besides, the “binding to Pmk1” value at Pmk1 is reported as “nonspecific binding”. In the test on M. oryzae [6], the “concentration at which conidia were completely nonpathogenic” value amounted to 150 µg/mL and the “concentration from which inhibition of M. oryzae virulence is observed” value is 50 µg/mL. For the same compound, in the test with M. oryzae conidia [7], the “appressorium penetration (penetration peg formation)” value is “did not form a penetration peg”. Moreover, in the test on M. oryzae conidia [8], the “germination and appressorium formation of conidia” value is “could not inhibit the germination and appressorium formation”. In addition, at Mps1 [9], the “kinase activity of Mps1” value was “suppressed the kinase activity of Mps1”. The compound also gave a Kd on Mpk1 [10] of 70.3 µM. For the same compound, the “kinase activity of Mpk1” value at Mpk1 [11] is on record as “can inhibit the kinase activity of Mpk1”. In the test on M. oryzae [12], the “conidiation reduced to” value is recorded as “about 40%”.

Take adenylyl imidodiphosphate [AMP-PNP]: the Kd on Src is 2540 µM; on Mps1 [5] (read-out: KD) it was < 500 µM; on Itk, 7900 µM. In addition, the “binding to Mps1” value at Mps1 [5] is “does not interact with Mps1; also recorded: no binding was detected”.
